These results are taken from ChEMBL document CHEMBL1141823, “Malayenolides A-D, novel diterpenes from the indonesian sea pen veretillum malayense” (J Nat Prod, 1999).

Values after ≈ are worked out from the molar mass of the structure shown. A value given as a limit tells only on which side of the number the result lay.

A short description of the series: Toxicity against brine shrimp. The series is classed as organism-based. The conditions noted are these: artemia, in vivo.
Compound `CC(=O)O[C@H]1C[C@@H]2O[C@]2(C)[C@@H]2CC3=C(C)C(=O)O[C@H]3/C=C(/C)CC[C@H](OC(=O)c3ccccc3)[C@@]12C` [MALAYENOLIDE B] came in with an LC50 below 2 µg/mL. `CC(=O)O[C@H]1CC=C(C)[C@@H]2CC3=C(C)C(=O)O[C@H]3/C=C(/C)CC[C@H](OC(=O)c3ccccc3)[C@@]12C` [MALAYENOLIDE A] showed an LC50 of 100 µg/mL (≈ 209 µM). Regarding `CC(=O)O[C@H]1C[C@@H]2O[C@]2(C)[C@@H]2CC3=C(C)C(=O)O[C@H]3/C=C(/C)CC[C@H](OC(=O)C=C(C)C)[C@@]12C` [MALAYENOLIDE D], the LC50 was determined as 20 µg/mL (≈ 42.3 µM). With `CC(=O)O[C@H]1CC=C(C)[C@@H]2CC3=C(C)C(=O)O[C@H]3/C=C(/C)CC[C@H](OC(=O)C=C(C)C)[C@@]12C` [MALAYENOLIDE C] the figure was 20 µg/mL (≈ 43.8 µM).

As a reminder, the LC50 is the concentration lethal to half of the exposed cells or organisms. Low values mean a more lethal substance, high ones a less lethal substance.
